The subject of the experiment is TSGH (bladder cancer cell line). The experiment is described as follows: Cell viability analysis (WST-1), bladder cancer cell line TSGH. It is filed as cell-based. The procedure:
The cell numbers were counted and reseed as 2×10^6 in cell culture plate/flask. Then, the culture medium was added to a volume of 10 ml, and the cells were cultured for 2-3 days. Then, the cells were suspended for loading into 96-well plates. The cell number was 3000/well and the volume of the culture medium was 100 μl each well.
Removing the original culture medium from 96-well plate. Then add 100 μl of commercially drug at a concentration of 10 μM per well. After 72 hours, add the diluted WST-1 reagent to the well with 100 μl/well, and the diluted WST-1 reagent was acquired from the dilution of 9:1 medium and WST-1 stock reagent. Finally, the total volume of each well was 200 μl/well. Culture the 96-well plate at 37° C. for 30 to 90 minutes. Detecting and calculate the survival rate of each cancer cells with an ELISA reader at OD450 nm.
For orientation: Tetrazolium dyes change colour on reduction, which living cells bring about.

Where two headings read alike, the source gives them in different places.

As for `Oc1ccc(OCc2ccccc2)cc1` [Monobenzone], the viability at 10 µM came to 84.6% (72 h, average of 4 tests, read-out: inhibition effect (survival rate of cells), average); 90.2% (72 hours, test 0510-10 min, read-out: inhibition effect (survival rate of cells)); 92.8% (72 hours, test 0512-10 min, read-out: inhibition effect (survival rate of cells)); 83% (72 hours, test 0515-10 min, read-out: inhibition effect (survival rate of cells)); 72.5% (72 hours, test 0517-10 min, read-out: inhibition effect (survival rate of cells)).

Source of the values: US10098852B2 (LAUNX BIOMEDICAL CO., LTD., priority 2014, dated 2018).
